# Tests used:
# [1] = target: Amine oxidase [copper-containing] 1 (diamine oxidase, Sus scrofa) (UniProt Q9TRC7); assay: Inhibition of porcine kidney DAO using 6-(5-phenyltetrazol-2-yl)hexan-1-amine as substrate at 10 uM preincubated with enzyme for 15 mins followed by substrate addition measured after 30 mins by UV-HPLC analysis relative to control; conditions: time 45.0 min
# [2] = target: T1, Amine oxidase [copper-containing] 3 (Bos taurus, UniProt Q9TTK6); assay: Stability of compound assessed as bovine plasma VAP-1 mediated drug degradation by measuring formation of aldehyde metabolite at 1 to 10 uM incubated for 60 to 120 mins by HPLC-MS analysis; assay type: ADME, cell-free; conditions: cattle, dose lower 1 µM, time lower 60 min, dose upper 10 µM, time upper 120 min
# T1 sequence (Q9TTK6 whole entry): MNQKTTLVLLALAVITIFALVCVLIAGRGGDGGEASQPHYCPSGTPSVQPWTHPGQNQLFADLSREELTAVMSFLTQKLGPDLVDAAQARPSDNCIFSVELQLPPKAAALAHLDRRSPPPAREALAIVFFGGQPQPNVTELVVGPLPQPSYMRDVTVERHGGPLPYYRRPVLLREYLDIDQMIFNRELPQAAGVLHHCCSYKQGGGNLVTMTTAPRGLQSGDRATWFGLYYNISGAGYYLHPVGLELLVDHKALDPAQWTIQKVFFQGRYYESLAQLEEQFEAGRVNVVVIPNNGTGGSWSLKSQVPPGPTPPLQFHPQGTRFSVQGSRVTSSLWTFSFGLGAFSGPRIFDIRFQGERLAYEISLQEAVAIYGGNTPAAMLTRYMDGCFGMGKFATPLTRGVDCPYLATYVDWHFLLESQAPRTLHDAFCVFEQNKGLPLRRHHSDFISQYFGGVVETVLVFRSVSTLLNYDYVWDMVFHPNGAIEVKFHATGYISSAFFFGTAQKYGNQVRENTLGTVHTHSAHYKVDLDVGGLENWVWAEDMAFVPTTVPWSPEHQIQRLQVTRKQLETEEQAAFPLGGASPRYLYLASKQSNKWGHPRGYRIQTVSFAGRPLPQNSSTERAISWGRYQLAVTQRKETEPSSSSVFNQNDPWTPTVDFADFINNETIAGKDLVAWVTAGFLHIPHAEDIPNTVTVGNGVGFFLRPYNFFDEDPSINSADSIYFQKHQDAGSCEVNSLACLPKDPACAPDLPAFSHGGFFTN
# [3] = target: T2, VAP-1 (amine oxidase [copper-containing] 3) (Bos taurus, UniProt Q9TTK6); assay: Stability of compound assessed as bovine plasma VAP-1 mediated drug degradation by measuring parent compound remaining at 10 uM incubated for 60 mins by HPLC-MS analysis; assay type: ADME, cell-free; conditions: cattle, bovine plasma VAP-1 (amine oxidase [copper-containing] 3), read-out: Stability
# T2 sequence (Q9TTK6 whole entry): T1 sequence (Q9TTK6 whole entry)
# [4] = target: T2, VAP-1 (amine oxidase [copper-containing] 3); assay: Stability of compound assessed as bovine plasma VAP-1 mediated drug degradation by measuring parent compound remaining at 10 uM incubated for 15 mins by HPLC-MS analysis; assay type: ADME, cell-free; conditions: cattle, bovine plasma VAP-1 (amine oxidase [copper-containing] 3), read-out: Stability
# [5] = target: T2, VAP-1 (amine oxidase [copper-containing] 3); assay: Stability of compound assessed as bovine plasma VAP-1 mediated drug degradation by measuring parent compound remaining at 10 uM incubated for 30 mins by HPLC-MS analysis; assay type: ADME, cell-free; conditions: cattle, bovine plasma VAP-1 (amine oxidase [copper-containing] 3), read-out: Stability
# [6] = target: T2, VAP-1 (amine oxidase [copper-containing] 3); assay: Stability of compound assessed as bovine plasma VAP-1 mediated drug degradation by measuring parent compound remaining at 10 uM incubated for 120 mins by HPLC-MS analysis; assay type: ADME, cell-free; conditions: cattle, bovine plasma VAP-1 (amine oxidase [copper-containing] 3), read-out: Stability
# [7] = target: T3, Amine oxidase [copper-containing] 3 (Homo sapiens) (UniProt Q16853); assay: Inhibition of human plasma VAP-1 using 6-(5-Pheny1-2H-tetrazol-2-yl)hexan-1-amine as substrate at 100 uM preincubated with enzyme for 15 mins followed by substrate addition measured after 120 mins by UV-HPLC analysis relative to control; assay type: cell-free; conditions: time 135.0 min
# T3 sequence (whole entry): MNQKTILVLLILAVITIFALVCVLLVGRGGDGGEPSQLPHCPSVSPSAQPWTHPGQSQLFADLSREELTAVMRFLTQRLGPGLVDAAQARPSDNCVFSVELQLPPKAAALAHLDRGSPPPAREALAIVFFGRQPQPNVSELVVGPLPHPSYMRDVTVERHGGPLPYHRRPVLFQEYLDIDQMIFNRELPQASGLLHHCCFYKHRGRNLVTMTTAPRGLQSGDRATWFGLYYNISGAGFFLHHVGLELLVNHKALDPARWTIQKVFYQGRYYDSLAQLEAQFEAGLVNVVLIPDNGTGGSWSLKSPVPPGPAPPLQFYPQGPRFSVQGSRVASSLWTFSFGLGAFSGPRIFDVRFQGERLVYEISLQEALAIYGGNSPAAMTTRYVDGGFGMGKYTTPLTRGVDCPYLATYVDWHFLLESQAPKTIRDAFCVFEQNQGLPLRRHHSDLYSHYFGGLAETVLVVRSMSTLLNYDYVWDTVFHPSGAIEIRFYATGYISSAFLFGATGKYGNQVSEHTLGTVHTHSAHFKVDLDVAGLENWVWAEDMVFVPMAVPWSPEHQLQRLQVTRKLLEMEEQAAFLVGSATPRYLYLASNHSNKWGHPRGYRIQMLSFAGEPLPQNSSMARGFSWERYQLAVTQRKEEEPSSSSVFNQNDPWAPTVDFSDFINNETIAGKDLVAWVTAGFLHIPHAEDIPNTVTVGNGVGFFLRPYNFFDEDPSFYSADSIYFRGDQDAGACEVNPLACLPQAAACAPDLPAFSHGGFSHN
# [8] = target: T4, Amine oxidase [copper-containing] 3 (Homo sapiens, UniProt Q16853); assay: Inhibition of human plasma VAP-1 using 6-(5-Pheny1-2H-tetrazol-2-yl)hexan-1-amine as substrate preincubated with enzyme for 15 mins followed by substrate addition measured after 120 mins by UV-HPLC analysis; assay type: cell-free
# T4 sequence (Q16853 whole entry): T3 sequence (whole entry)
# [9] = Selectivity index, ratio of IC50 for human plasma VAP-1 to IC50 for bovine plasma VAP-1
# [10] = target: T3, Amine oxidase [copper-containing] 3 (Homo sapiens); assay: Inhibition of human plasma VAP-1 using 6-(5-Pheny1-2H-tetrazol-2-yl)hexan-1-amine as substrate at 10 uM preincubated with enzyme for 15 mins followed by substrate addition measured after 120 mins by UV-HPLC analysis relative to control; assay type: cell-free; conditions: time 135.0 min
# Chain of Amine oxidase [copper-containing] 1 (diamine oxidase, Sus scrofa) (Q9TRC7 whole entry, looked up): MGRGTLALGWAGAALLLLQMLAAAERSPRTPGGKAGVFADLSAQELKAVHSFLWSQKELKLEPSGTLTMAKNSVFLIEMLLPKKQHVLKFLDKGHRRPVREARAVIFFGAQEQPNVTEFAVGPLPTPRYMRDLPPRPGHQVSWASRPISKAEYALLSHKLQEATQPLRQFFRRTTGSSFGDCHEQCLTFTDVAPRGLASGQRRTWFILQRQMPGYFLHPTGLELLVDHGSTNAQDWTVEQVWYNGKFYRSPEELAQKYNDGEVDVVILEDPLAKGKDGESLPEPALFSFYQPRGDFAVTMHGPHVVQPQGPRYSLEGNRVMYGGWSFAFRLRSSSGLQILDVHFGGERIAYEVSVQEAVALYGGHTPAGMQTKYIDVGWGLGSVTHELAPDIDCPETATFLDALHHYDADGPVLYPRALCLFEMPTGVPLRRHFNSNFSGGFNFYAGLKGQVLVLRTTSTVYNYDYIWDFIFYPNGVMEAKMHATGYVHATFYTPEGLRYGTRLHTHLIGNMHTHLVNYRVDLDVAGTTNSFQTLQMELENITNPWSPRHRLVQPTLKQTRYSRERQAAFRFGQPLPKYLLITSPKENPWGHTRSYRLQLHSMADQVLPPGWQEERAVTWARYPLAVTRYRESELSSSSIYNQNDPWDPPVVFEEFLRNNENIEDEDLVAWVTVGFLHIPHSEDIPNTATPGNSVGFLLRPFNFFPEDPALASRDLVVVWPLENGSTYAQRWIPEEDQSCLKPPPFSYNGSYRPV
inhibition [1] [%],Stability [2],"remaining at 1 h, 10 µM [3] [%]","remaining at 0.25 h, 10 µM [4] [%]","remaining at 0.5 h, 10 µM [5] [%]","remaining at 2 h, 10 µM [6] [%]",inhibition [7] [%],IC50 [8] [µM],Ratio IC50 [9],inhibition [10] [%],SMILES
39,Unstable,66,92,85,23,–,–,–,–,NCC(=O)NCc1cccc(-c2ccccc2)c1
–,Unstable,–,80,58,< 5,23,> 100,–,–,NCC(=O)NCCCCCCn1nnc(-c2ccccc2)n1
–,Unstable,–,85,79,29,–,32,2,17,N#Cc1ccc(-c2nnn(CCCCCCNC(=O)CN)n2)cc1
